According to patent US10072026B2, “Crystalline form of 3-((1R,3s,5S)-3-((7-((5-methyl-1H-pyrazol-3-yl)amino)-1,6-naphthyridin-5-yl)amino)-8-azabicyclo[3.2.1]octan-8-yl)propanenitrile” (priority 2015, dated 2018):

system: IL-4 induced STAT6 phosphorylation in THP-1 human monocytic cells; assay: Cellular JAK potency assay, THP-1; conditions: Homo sapiens, THP-1, read-out: THP-1 IL4 pIC50 (converted)

Row | SMILES | IC50 [nM]
1 | Cc1cc(Nc2cc3ncccc3c(N[C@@H]3C[C@H]4CC[C@@H](C3)N4CC3COC(=O)O3)n2)n[nH]1 (stereo partly shown) [Example 1-30] | 31.6 to 200
2 | CCC1(S(=O)(=O)N2[C@@H]3CC[C@H]2C[C@H](Nc2nc(Nc4cc(C)[nH]n4)cc4nc(CN5CCC(F)(F)CC5)ccc24)C3)CC1 [Example 5-32] | 31.6 to 200

same assay, conditions: IL-4 induced STAT6 phosphorylation, THP-1 cells

Row | SMILES | THP-1 IL4 pIC50
3 | COC(=O)CCCN1[C@@H]2CC[C@H]1C[C@H](Nc1nc(Nc3cc(C)[nH]n3)cc3ncccc13)C2 [Example 1-3] | C (C represents a pEC50 value<6.7 (EC50>200 nM))
4 | Cc1cc(Nc2cc3ncccc3c(N[C@@H]3C[C@H]4CC[C@@H](C3)N4CC(=O)N[C@H]3CCOC3=O)n2)n[nH]1 [Example 1-12] | C (C represents a pEC50 value<6.7 (EC50>200 nM))
5 | COCCS(=O)(=O)N1[C@@H]2CCC[C@H]1C[C@H](Nc1nc(Nc3cc(C)[nH]n3)cc3nc(CN4CCOCC4)ccc13)C2 [Example 5-24] | B (B represents a pEC50 value between 6.7 and 7.5 (EC50 between 200 nM and 32 nM))
6 | Cc1cc(Nc2cc3ncccc3c(N[C@@H]3C[C@H]4CCC[C@@H](C3)N4[C@@H]3CCOC3=O)n2)n[nH]1 [Example 1-52] | B (B represents a pEC50 value between 6.7 and 7.5 (EC50 between 200 nM and 32 nM))
7 | Cc1cc(Nc2cc3ncccc3c(N[C@@H]3C[C@H]4CC[C@@H](C3)N4CC(=O)N[C@@H]3CCOC3=O)n2)n[nH]1 [Example 1-11] | C (C represents a pEC50 value<6.7 (EC50>200 nM))
8 | Cc1cc(Nc2cc3ncccc3c(N[C@@H]3C[C@H]4CCC[C@@H](C3)N4Cc3cccc(O)c3)n2)n[nH]1 [Example 1-49] | A (A represents a pEC50 value≥7.5 (EC50≤32 nM))
9 | COC(=O)CCN1[C@@H]2CC[C@H]1C[C@H](Nc1nc(Nc3cc(C)[nH]n3)cc3ncccc13)C2 [Example 1-2] | C (C represents a pEC50 value<6.7 (EC50>200 nM))
10 | Cc1cc(Nc2cc3nc(CN4CCOCC4)ccc3c(N[C@@H]3C[C@H]4CCC[C@@H](C3)N4S(=O)(=O)N3CCC3)n2)n[nH]1 [Example 5-28] | B (B represents a pEC50 value between 6.7 and 7.5 (EC50 between 200 nM and 32 nM))
11 | Cc1cc(Nc2cc3ncccc3c(N[C@@H]3C[C@H]4CCC[C@@H](C3)N4[C@H]3CCOC3=O)n2)n[nH]1 [Example 1-51] | B (B represents a pEC50 value between 6.7 and 7.5 (EC50 between 200 nM and 32 nM))
12 | COC(=O)CN1[C@@H]2CC[C@H]1C[C@H](Nc1nc(Nc3cc(C)[nH]n3)cc3ncccc13)C2 [Example 1-1] | C (C represents a pEC50 value<6.7 (EC50>200 nM))
13 | C=CCOC(=O)N1[C@@H]2CCC[C@H]1C[C@H](Nc1nc(Nc3cc(C)[nH]n3)cc3nc(CN4CCOCC4)ccc13)C2 [Example 5-25] | B (B represents a pEC50 value between 6.7 and 7.5 (EC50 between 200 nM and 32 nM))

same assay, conditions: THP-1 cells, IL-4 induced STAT6 phosphorylation

Row | SMILES | THP-1 IL4 pIC50
14 | Cc1cc(Nc2cc3ncc(S(C)(=O)=O)cc3c(N[C@@H]3C[C@H]4CC[C@@H](C3)N4[C@@H]3CCOC3=O)n2)n[nH]1 [Example 6-57] | C (C represents a pEC50 value<6.7 (EC50>200 nM))
15 | COC(=O)c1cnc2cc(Nc3cc(C)[nH]n3)nc(N[C@@H]3C[C@H]4CC[C@@H](C3)N4CCCF)c2c1 [Example 6-44] | B (B represents a pEC50 value between 6.7 and 7.5 (EC50 between 200 nM and 32 nM))
16 | COc1ccnc2cc(Nc3cc(C)[nH]n3)nc(N[C@@H]3C[C@H]4CC[C@@H](C3)N4C(=O)CN(C)C)c12 [Example 7-3] | C (C represents a pEC50 value<6.7 (EC50>200 nM))
17 | Cc1cc(Nc2cc3ncc(S(C)(=O)=O)cc3c(N[C@@H]3C[C@H]4CC[C@@H](C3)N4CCCF)n2)n[nH]1 [Example 6-55] | C (C represents a pEC50 value<6.7 (EC50>200 nM))
18 | COc1ccnc2cc(Nc3cc(C)[nH]n3)nc(N[C@@H]3C[C@H]4CC[C@@H](C3)N4CCF)c12 [Example 7-7] | B (B represents a pEC50 value between 6.7 and 7.5 (EC50 between 200 nM and 32 nM))
19 | Cc1cc(Nc2cc3ncc(S(C)(=O)=O)cc3c(N[C@@H]3C[C@H]4CC[C@@H](C3)N4[C@H]3CCOC3=O)n2)n[nH]1 [Example 6-58] | C (C represents a pEC50 value<6.7 (EC50>200 nM))
